The source of these data is patent US20250074891A1 (Anaxis Pharma Pty Ltd., priority 2021, published 2025).

In one assay the target is MLKL (full length) (Homo sapiens (Human), UniProt Q8NB16). Nature of the assay: KINOMEscan binding assay, MLKL (full length). To be noted: Table 36. The protocol: Kinase assays. For most assays, kinase-tagged T7 phage strains were grown in parallel in 24-well blocks in an E. coli host derived from the BL21 strain. E. coli were grown to log-phase and infected with T7 phage from a frozen stock (multiplicity of infection=0.4) and incubated with shaking at 32° C. until lysis (90-150 minutes).
Chain of MLKL (full length) (Q8NB16 whole entry): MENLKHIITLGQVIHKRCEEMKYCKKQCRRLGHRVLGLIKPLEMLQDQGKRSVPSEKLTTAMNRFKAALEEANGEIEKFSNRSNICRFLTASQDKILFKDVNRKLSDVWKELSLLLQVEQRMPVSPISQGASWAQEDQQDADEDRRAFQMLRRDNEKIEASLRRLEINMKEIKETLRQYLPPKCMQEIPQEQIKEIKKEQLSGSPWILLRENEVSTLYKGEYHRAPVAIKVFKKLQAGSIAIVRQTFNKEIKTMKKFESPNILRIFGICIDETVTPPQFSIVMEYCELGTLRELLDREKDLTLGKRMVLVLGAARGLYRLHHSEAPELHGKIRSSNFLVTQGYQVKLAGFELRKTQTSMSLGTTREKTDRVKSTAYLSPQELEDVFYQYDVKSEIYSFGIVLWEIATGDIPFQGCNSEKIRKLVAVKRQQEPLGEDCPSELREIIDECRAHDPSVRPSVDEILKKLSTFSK
The Hill Slope was set to −1.

Assay [1] concerns U937 human histiocytic leukemia cell line. In words: Cellular assay: inhibition of TSQ induced necroptosis (CellTitre-Glo). Conditions: Homo sapiens, U-937; U937 cells, TSQ cocktail, 48 hours, Table 38; read-out: Inhibition of TSQ-induced necroptosis (IC50 cell-based assay). The essentials:
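U937 cells (20,000/well) pre-dosed with compound (10-point, 1:3 from 36 μM, 0.3% DMSO), then TSQ (hTNF-Fc 100 ng/ml, Smac mimetic 500 nM, Q-VD-OPh 10 μM) for 48 h at 37 °C. Viability by CellTiter-Glo luminescence, normalised to DMSO (100%) and DMSO+TSQ (0%); IC50 from 4-parameter fit.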

A further assay deals with U937 cells. Nature of the assay: Counter screen: cell viability without TSQ cocktail (off-target effect). More on the design: species or system human. Conditions: Homo sapiens, U-937, Table 38, read-out: Off-target effect (IC50 cell-based assay). The procedure: Counter screen: In parallel, all compounds were tested for their ability to affect cell viability. The same U937 cells were treated with compound in DMSO without the TSQ cocktail. This counter screen enabled evaluation of off-target effects. In this case, cell viability was measured by CelltiterGlo.

Each structure is given as a SMILES string.

Turning to `Cc1ncsc1-c1ccc(CNC(=O)[C@@H]2C[C@@H](O)CN2C(=O)[C@@H](NC(=O)COCCOCCn2ccc(Nc3[nH]nc(-c4ccc(NS(=O)(=O)C(F)F)c(O[C@@H](C)c5ccc(F)cc5)c4)c3C(N)=O)n2)C(C)(C)C)cc1` [Compound 1037, 3-[4-(difluoromethanesulfonamido)-3-[(1S)-1-(4-fluorophenyl)ethoxy]phenyl]-5-[(1-{2-[2-({[(2S)-1-[(2S,4R)-4-hydroxy-2-({[4-(4-methyl-1,3-thiazol-5-yl)phenyl]methyl}carbamoyl)pyrrolidin-1-yl]-3,3-dimethyl-1-oxobutan-2-yl]carbamoyl}methoxy)ethoxy]ethyl}-1H-pyrazol-3-yl)amino]-1H-pyrazole-4-carboxamide], on MLKL (full length), the dissociation constant (Kd) (commonly the constant that tells how readily two partners part at equilibrium) is less than 0.01 µM. The IC50 (in general, the concentration that inhibits the measured activity by half) was less than 1 µM in assay [1] and greater than 10 µM in the assay with U937 cells.
As to `CCS(=O)(=O)Nc1ccc(-c2n[nH]c(Nc3ccc(C(=O)OCCOCC(=O)N[C@H](C(=O)N4C[C@H](O)C[C@H]4C(=O)NCc4ccc(-c5scnc5C)cc4)C(C)(C)C)cn3)c2C(N)=O)cc1O[C@@H](C)c1ccc(F)cc1` [Compound 1046, 2-({[(2S)-1-[(2S,4R)-4-hydroxy-2-({[4-(4-methyl-1,3-thiazol-5-yl)phenyl]methyl}carbamoyl)pyrrolidine-1-yl]-3,3-dimethyl-1-oxobutan-2-yl]carbamoyl}methoxy)ethyl 6-[(4-carbamoyl-3-{4-ethanesulfonamido-3-[(1S)-1-(4-fluorophenyl)ethoxy]phenyl}-1H-pyrazol-5-yl)amino]pyridine-3-carboxylate], at MLKL (full length), the Kd lay in the range of 0.01 to 1 µM. Further, the half-inhibitory concentration (IC50) is less than 1 µM in assay [1] and greater than 10 µM in the assay on U937 cells.
In the same order, the values of `Cc1ncsc1-c1ccc(CNC(=O)[C@@H]2C[C@@H](O)CN2C(=O)[C@@H](NC(=O)CCCCC#Cc2ccc(Nc3[nH]nc(-c4ccc(NS(=O)(=O)C(F)F)c(O[C@@H](C)c5ccc(F)cc5)c4)c3C(N)=O)nc2)C(C)(C)C)cc1` [Compound 1047, 3-[4-(difluoromethanesulfonamido)-3-[(1 S)-1-(4-fluorophenyl)ethoxy]phenyl]-5-{[5-(6-{[(2S)-1-[(2S,4R)-4-hydroxy-2-({[4-(4-methyl-1,3-thiazol-5-yl)phenyl]methyl}carbamoyl)pyrrolidin-1-yl]-3,3-dimethyl-1-oxobutan-2-yl]carbamoyl}hex-1-yn-1-yl)pyridin-2-yl]amino}-1H-pyrazole-4-carboxamide] are 0.01 to 1 µM, less than 1 µM and 1 to 10 µM.
`Cc1ncsc1-c1ccc(CNC(=O)[C@@H]2C[C@@H](O)CN2C(=O)[C@@H](NC(=O)CCCCOC(=O)c2ccc(Nc3[nH]nc(-c4ccc(NS(=O)(=O)C(F)F)cc4)c3C(N)=O)nc2)C(C)(C)C)cc1` [Compound 1049, 4-{[(2S)-1-[(2S,4R)-4-hydroxy-2-({[4-(4-methyl-1,3-thiazol-5-yl)phenyl]methyl}carbamoyl)pyrrolidine-1-yl]-3,3-dimethyl-1-oxobutan-2-yl]carbamoyl}butyl 6-({4-carbamoyl-3-[4-(difluoromethanesulfonamido)phenyl]-1H-pyrazol-5-yl}amino)pyridine-3-carboxylate]: on MLKL (full length), the equilibrium dissociation constant (Kd) is less than 0.01 µM. Moreover, the IC50 in assay [1] is 1 to 10 µM; in the assay on U937 cells, greater than 10 µM.
At MLKL (full length), `CCS(=O)(=O)Nc1ccc(-c2n[nH]c(Nc3ccc(C(=O)OCCCCC(=O)N[C@H](C(=O)N4C[C@H](O)C[C@H]4C(=O)NCc4ccc(-c5scnc5C)cc4)C(C)(C)C)cn3)c2C(N)=O)cc1OCc1ccc(F)cc1` [Compound 1052, 4-{[(2S)-1-[(2S,4R)-4-hydroxy-2-{{[4-(4-methyl-1,3-thiazol-5-yl)phenyl]methyl}carbamoyl)pyrrolidin-1-yl]-3,3-dimethyl-1-oxobutan-2-yl]carbamoyl}butyl 6-[(4-carbamoyl-3-{4-ethanesulfonamido-3-[(4-fluorophenyl)methoxy]phenyl}-1H-pyrazol-5-yl)amino]pyridine-3-carboxylate] had a Kd of 1 to 30 µM. Also, the IC50 (in assay [1]; in the assay on U937 cells) was greater than 10 µM throughout.
